{"source": "patent US5157052A", "about": "“Method for inhibiting IgE production” (priority 1990, dated 1992)", "key": {"κ Light Chain": {"system": "κ Light Chain", "assay": "Splenocyte cell surface density/distribution (FACS): κ Light Chain", "assay_type": "in vivo, mouse (Balb/c female)", "protocol": "(§1) One group of 4 unstimulated Balb/c female mice is injected with PBS (Group A). Another (Group B) is injected with 20 μg (±) methyl 11α,16-dihydroxy-16-methyl-9-oxoprosta-5Z,13E-dien-1-oate as in Example 13. […] A 3 cm incision is made with a scalpel above the left hip, and the spleen is cut free from adjoining tissue and placed in a 100 mn plastic culture dish containing 10 ml PBS. The splenic cells are then made into a suspension, by rubbing the spleens between the rough, frosted ends of microscope slides repeatedly until the only remaining particulate matter is connective tissue. Cells are transferred to a 15 ml conical polystyrene tube and centrifuged in a centrifuge at 1200 rpm for 5 minutes. The supernatant is discarded by aspiration and the cell pellet is resuspended in 10 ml PBS, then centrifuged at 1200 rpm for 5 minutes. The supernatant is aspirated and the cell pellet is resuspended in 15 mM Tris, 140 mM Ammonium Chloride, to lyse red blood cells. After incubating at room temperature for 10 minutes the cell suspension is centrifuged at 1200 rpm for 10 minutes. The supernatant is discarded and the cell pellet is resuspended in 10 ml FACS Buffer (PBS containing 0.1% BSA and 0.1% Sodium Azide). The cell suspension is filtered through sterile glass wool plugged in the top of a pasteur pipet. Cells in the flow through are counted using a hemacytometer, then the cell suspension is centrifuged at 1200 rpm for 5 minutes. The supernatant is discarded and the cell pellet is resuspended in a volume of FACS Buffer that will yield 4×10^7 cells/ml. 10 μl (4×10^5 cells) is added to each well of a 96-well V-bottom plate. 25 μl of diluted monoclonal antibody directed against splenocyte cell surface proteins is added to each well: Major Histocompatability Complex (MHC) Class II (M5114, ATCC, Rockville Md.), MHC Class I (M1/42, ATCC), Anti-IgD (JA12.5, ATCC, Rockville, Md.), Thymocyte (Thy)-1 (JIJ, ATCC), B220 (14.8, ATCC), Kappa light chain (187, ATCC), IL-2 Receptor (7D4, ATCC), Lyt-1 (7.313, ATCC) and CD23 (biotinylated B3B4) and incubated on ice for 30 minutes. 100 μl 10% BSA 0.1% sodium azide is added to each well, then the plates are centrifuged at 1200 rpm for 10 minutes. The liquid is removed by aspiration and the cell pellets are resuspended in 100 μl FACS Buffer, and centrifuged at 1200 rpm for 5 minutes. […] Samples are transferred to individual tubes and 10,000 cells are analyzed. Using the Lysis software (Becton Dickinson, Mountain View, Calif.) the mean channel log fluorescence and percent positive cells are determined for the entire cell population. […]"}, "MHC Class I": {"system": "MHC Class I", "assay": "Splenocyte cell surface density/distribution (FACS): MHC Class I", "assay_type": "in vivo, mouse (Balb/c female)", "protocol": "as §1"}}, "data": [{"smiles": "CCCCC(C)(O)C/C=C/[C@H]1[C@H](O)CC(=O)[C@@H]1C/C=C\\CCCC(=O)OC", "note": "(mixture of isomers) [(±) methyl 11α,16-dihydroxy-16-methyl-9-oxoprosta-5Z,13E-dien-1-oate]", "values": [{"measurement": "Percentage Positive Cells", "setting": "κ Light Chain; anti-IgD stimulated mice, 20 μg days 3 and 4, day 7 (PBS 50)", "value": "58 ± 14.6", "unit": "%"}, {"measurement": "Mean Channel Log Fluorescence", "setting": "κ Light Chain; anti-IgD stimulated mice, 20 μg days 3 and 4, day 7 (PBS 118)", "value": "119 ± 7"}, {"measurement": "Percentage Positive Cells", "setting": "κ Light Chain; unstimulated mice, 20 μg (PBS 52.1)", "value": "53.9 ± 2.1", "unit": "%"}, {"measurement": "Mean Channel Log Fluorescence", "setting": "κ Light Chain; unstimulated mice, 20 μg (PBS 135)", "value": "131 ± 4"}, {"measurement": "Percentage Positive Cells", "setting": "MHC Class I; anti-IgD stimulated mice, 20 μg days 3 and 4, day 7 (PBS 48.5)", "value": "59.4 ± 5.4", "unit": "%"}, {"measurement": "Mean Channel Log Fluorescence", "setting": "MHC Class I; anti-IgD stimulated mice, 20 μg days 3 and 4, day 7 (PBS 113)", "value": "121 ± 15"}, {"measurement": "Percentage Positive Cells", "setting": "MHC Class I; unstimulated mice, 20 μg (PBS 57.8)", "value": "79 ± 16", "unit": "%"}, {"measurement": "Mean Channel Log Fluorescence", "setting": "MHC Class I; unstimulated mice, 20 μg (PBS 112)", "value": "113 ± 2"}]}]}
